This is an account of results in ChEMBL document CHEMBL6177931, “Exploring diverse frontiers: Advancements of bioactive 4-aminoquinoline-based molecular hybrids in targeted therapeutics and beyond” (Eur J Med Chem, 2024).

≈ marks a conversion by molar mass, not a printed value.

In one data set the test system is Enterococcus faecalis. The data set can be described thus: Antibacterial activity against Enterococcus faecalis ATCC13047. Type of data set: functional.
The next data set relates to Proteus vulgaris. Briefly: Antibacterial activity against Proteus vulgaris ATCC6380. The format is functional.
Data set [1] concerns Staphylococcus epidermidis. Briefly: Antibacterial activity against Staphylococcus epidermidis. The format is functional.
For another data set, the system named is Pseudomonas mevalonii. The data set can be described thus: Antibacterial activity against Pseudomonas mevalonii. The format is functional. The following applies: Pseudomonas sp. 'mevalonii'.
For data set [2], the system named is Mycolicibacterium smegmatis. The data set can be described thus: Antibacterial activity against Mycobacterium smegmatis. The format is functional.
Data set [3] concerns Bacillus subtilis. Briefly: Antibacterial activity against Bacillus subtilis ATCC19659. The format is functional.
Data set [4] concerns Escherichia coli. The data set can be described thus: Antibacterial activity against Escherichia coli ATCC25922. Type of data set: functional.
A further data set deals with Klebsiella oxytoca. Briefly: Antibacterial activity against Klebsiella oxytoca ATCC8724. Type of data set: functional.
For data set [5], the system named is Pseudomonas aeruginosa. Briefly: Antibacterial activity against Pseudomonas aeruginosa. The format is functional.
Data set [6] deals with Staphylococcus aureus. The data set can be described thus: Antibacterial activity against Staphylococcus aureus. The format is functional.
In data set [7] the target is Cholinesterase (Homo sapiens, UniProt P06276). The data set can be described thus: Inhibition of human BChE.
Data set [8] deals with Acetylcholinesterase (Homo sapiens, UniProt P22303). The data set can be described thus: Inhibition of human AChE.
Data set [9] deals with Mycobacterium tuberculosis. The data set can be described thus: Antitubercular activity against Mycobacterium tuberculosis H37Rv by microplate alamar blue assay. Type of data set: functional. Background: The colour change of resazurin is a common sign of viable cells or microbes.
Another data set deals with HCT-116. The data set can be described thus: Anticancer activity against human HCT-116 cells assessed as cell growth inhibition incubated for 72 hrs by MTT assay. The format is functional.
Data set [10] relates to HL-60. The data set can be described thus: Anticancer activity against human HL-60 cells assessed as cell growth inhibition incubated for 72 hrs by CellTiter96 aqueous Non-Radioactive Cell Proliferation Assay. The format is functional.
A further data set has as its system CAPAN-1. Briefly: Anticancer activity against human CAPAN-1 cells assessed as cell growth inhibition by MTS assay. The format is functional.
A further data set concerns K562. The data set can be described thus: Anticancer activity against human K562 cells assessed as cell growth inhibition incubated for 72 hrs by CellTiter96 aqueous Non-Radioactive Cell Proliferation Assay. Type of data set: functional.
Another data set has as its system Z-138. Briefly: Anticancer activity against human Z138 cells assessed as cell growth inhibition incubated for 72 hrs by CellTiter96 aqueous Non-Radioactive Cell Proliferation Assay. Type of data set: functional.
Data set [11] concerns MCF7. The data set can be described thus: Antiproliferative activity against human MCF7 cells assessed as cell growth inhibition incubated for 72 hrs by MTT assay. Type of data set: functional. (Tetrazolium assays rely on reduction of a dye to a coloured formazan, in cell work by metabolically active cells.)
Data set [12] has as its system NCI-H460. Briefly: Anticancer activity against human NCI-H460 cells assessed as cell growth inhibition incubated for 72 hrs by MTT assay. Type of data set: functional.
Data set [13] is described as follows: Anticancer activity against human DND41 cells assessed as cell growth inhibition incubated for 72 hrs by CellTiter96 aqueous Non-Radioactive Cell Proliferation Assay. The format is functional.
The next data set concerns LN-229. Briefly: Anticancer activity against human LN-229 cells assessed as cell growth inhibition by MTS assay. The format is functional.
In data set [14] the target is Cholinesterases; ACHE & BCHE (Homo sapiens) (UniProt P06276+P22303). The data set can be described thus: Selectivity ratio of IC50 for inhibition of recombinant human AchE to IC50 for inhibition of human BchE. Type of data set: protein assay.
For data set [15], the system named is Mycobacterium tuberculosis. Briefly: Antitubercular activity against Mycobacterium tuberculosis H37Rv assessed as inhibition of bacterial growth at 250 microg/ml relative to control. Type of data set: functional.
The test system of data set [16] is Mycobacterium tuberculosis. The data set can be described thus: Antitubercular activity against Mycobacterium tuberculosis H37Rv. Type of data set: functional.
The subject of a further data set is Plasmodium falciparum. Briefly: Antiplasmodial activity against chloroquine sensitive Plasmodium falciparum NF54 incubated for 48 hrs by lactate dehydrogenase assay. The note with it: NF54, Erythrocyte. Type of data set: functional, organism-based.
Data set [17] deals with Staphylococcus aureus. The data set can be described thus: Antibacterial activity against Staphylococcus aureus MTCC 96 by agar streak dilution method. Type of data set: functional.
Data set [18] has as its system Escherichia coli. Briefly: Antibacterial activity against Escherichia coli MTCC 739 by agar streak dilution method. Type of data set: functional.
Data set [19] deals with Bacillus subtilis. The data set can be described thus: Antibacterial activity against Bacillus subtilis MTCC 619 by agar streak dilution method. Type of data set: functional.
Data set [20] has as its system Pseudomonas aeruginosa. The data set can be described thus: Antibacterial activity against Pseudomonas aeruginosa MTCC 741 by agar streak dilution method. The format is functional.
A further data set concerns L02. Briefly: Antiproliferative activity against human HL7702 cells incubated for 48 hrs by MTT assay. Type of data set: functional, cell-based. The following applies: L02, 48 h.
The subject of data set [21] is NCI-H460. The data set can be described thus: Antiproliferative activity against human NCI-H460 cells incubated for 48 hrs by MTT assay. Type of data set: functional, cell-based. The note with it: NCI-H460, 48 h.
In another data set the test system is T-24. Briefly: Antiproliferative activity against human T24 cells incubated for 48 hrs by MTT assay. Type of data set: functional, cell-based. The following applies: T-24, 48 h.
The test system of data set [22] is HepG2. The data set can be described thus: Anticancer activity against human HepG2 cells incubated for 48 hrs by MTT assay. Type of data set: functional, cell-based. The note with it: HepG2, 48 h.
Data set [23] deals with MGC-803. Briefly: Antitumor activity against human MGC-803 cells xenografted in male BALB/c nude mouse assessed as suppression of tumor growth at 12 mg/kg, ip administered per 2 days relative to control. The format is functional. A general note: In xenograft studies the graft and the host belong to different species.
The test system of data set [24] is MGC-803. Briefly: Antiproliferative activity against human MGC-803 cells incubated for 48 hrs by MTT assay. Type of data set: functional, cell-based. The following applies: MGC-803, 48 h.
The subject of another data set is Aspergillus niger. Briefly: Antifungal activity Aspergillus niger MTCC 282 by agar streak dilution method. Type of data set: organism-based.
The next data set concerns Candida albicans. Briefly: Antifungal activity against Candida albicans MTCC 183 by agar streak dilution method. Type of data set: functional.
In data set [25] the target is T1, Cholinesterase (Equus caballus, UniProt P81908). Briefly: Inhibition of equine serum BChE using […] as substrate measured within 2 mins.
Data set [26] has as its target T2, Acetylcholinesterase (Electrophorus electricus, UniProt O42275). The data set can be described thus: Inhibition of electric eel AChE using […] as substrate measured within 2 mins.
Another data set has as its system SMMC-7721. Briefly: Antiproliferative activity against human SMMC-7721 cells assessed as reduction in cell proliferation incubated for 24 hrs by MTT assay. The format is functional, cell-based. The note with it: SMMC-7721, 24 h.
The subject of data set [27] is HepG2. The data set can be described thus: Antiproliferative activity against human HepG2 cells assessed as reduction in cell proliferation incubated for 24 hrs by MTT assay. Type of data set: functional, cell-based. The following applies: HepG2, 24 h.
The next data set has as its system Huh-7. Briefly: Antiproliferative activity against human Huh-7 cells assessed as reduction in cell proliferation incubated for 24 hrs by MTT assay. The format is functional, cell-based. The note with it: Huh-7, 24 h.
The target in data set [28] is T1, Cholinesterase. The data set can be described thus: Inhibition of equine serum BChE using […] as substrate measured after 2 mins by Ellman's reagent based spectrophotometric analysis.
For data set [29], the target named is T2, Acetylcholinesterase. Briefly: Inhibition of electric eel AChE using […] as substrate measured after 2 mins by Ellman's reagent based spectrophotometric analysis.
The subject of data set [30] is HL-60. Briefly: Anticancer activity against human HL-60 cells incubated for 48 hrs by MTT assay. Type of data set: functional, cell-based. The following applies: HL-60, 48 h.
Data set [31] concerns MCF7. Briefly: Anticancer activity against human MCF7 cells incubated for 48 hrs by MTT assay. Type of data set: functional, cell-based. The note with it: MCF7, 48 h.
A further data set deals with HeLa. Briefly: Anticancer activity against human HeLa cells incubated for 48 hrs by MTT assay. The format is functional, cell-based.

T1 sequence (P81908 whole entry): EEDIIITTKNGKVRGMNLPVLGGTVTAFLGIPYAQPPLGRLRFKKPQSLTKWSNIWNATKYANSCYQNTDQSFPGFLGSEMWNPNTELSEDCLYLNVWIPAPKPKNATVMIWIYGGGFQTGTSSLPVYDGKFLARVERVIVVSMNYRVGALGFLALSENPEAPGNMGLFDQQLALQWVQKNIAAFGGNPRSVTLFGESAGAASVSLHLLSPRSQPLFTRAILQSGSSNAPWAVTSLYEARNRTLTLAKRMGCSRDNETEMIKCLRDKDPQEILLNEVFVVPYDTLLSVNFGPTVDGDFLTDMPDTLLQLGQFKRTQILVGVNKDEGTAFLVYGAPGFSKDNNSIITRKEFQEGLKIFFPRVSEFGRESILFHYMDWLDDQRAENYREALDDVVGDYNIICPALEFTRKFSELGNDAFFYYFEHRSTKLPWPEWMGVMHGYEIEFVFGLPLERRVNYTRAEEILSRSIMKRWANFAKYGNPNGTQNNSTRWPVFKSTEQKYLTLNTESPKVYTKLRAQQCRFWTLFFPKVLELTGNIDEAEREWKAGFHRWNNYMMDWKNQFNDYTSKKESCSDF
T2 sequence (O42275 whole entry): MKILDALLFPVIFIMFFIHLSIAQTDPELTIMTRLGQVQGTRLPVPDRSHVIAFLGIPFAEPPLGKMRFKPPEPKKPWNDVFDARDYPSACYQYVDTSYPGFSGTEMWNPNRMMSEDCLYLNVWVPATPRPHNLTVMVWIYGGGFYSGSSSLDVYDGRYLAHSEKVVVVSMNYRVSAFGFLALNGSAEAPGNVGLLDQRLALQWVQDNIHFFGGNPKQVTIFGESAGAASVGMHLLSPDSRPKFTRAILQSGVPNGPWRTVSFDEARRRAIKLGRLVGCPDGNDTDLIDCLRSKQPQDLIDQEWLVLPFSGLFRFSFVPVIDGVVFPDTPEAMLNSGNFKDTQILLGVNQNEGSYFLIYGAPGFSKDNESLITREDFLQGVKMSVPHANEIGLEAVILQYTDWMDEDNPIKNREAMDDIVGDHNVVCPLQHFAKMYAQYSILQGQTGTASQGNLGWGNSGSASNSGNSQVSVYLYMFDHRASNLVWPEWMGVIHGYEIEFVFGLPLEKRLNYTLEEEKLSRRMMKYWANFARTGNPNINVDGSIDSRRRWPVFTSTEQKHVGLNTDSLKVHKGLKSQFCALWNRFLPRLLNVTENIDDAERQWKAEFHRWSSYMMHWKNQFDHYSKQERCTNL
Sequence of Acetylcholinesterase (Homo sapiens, UniProt P22303) (P22303 whole entry): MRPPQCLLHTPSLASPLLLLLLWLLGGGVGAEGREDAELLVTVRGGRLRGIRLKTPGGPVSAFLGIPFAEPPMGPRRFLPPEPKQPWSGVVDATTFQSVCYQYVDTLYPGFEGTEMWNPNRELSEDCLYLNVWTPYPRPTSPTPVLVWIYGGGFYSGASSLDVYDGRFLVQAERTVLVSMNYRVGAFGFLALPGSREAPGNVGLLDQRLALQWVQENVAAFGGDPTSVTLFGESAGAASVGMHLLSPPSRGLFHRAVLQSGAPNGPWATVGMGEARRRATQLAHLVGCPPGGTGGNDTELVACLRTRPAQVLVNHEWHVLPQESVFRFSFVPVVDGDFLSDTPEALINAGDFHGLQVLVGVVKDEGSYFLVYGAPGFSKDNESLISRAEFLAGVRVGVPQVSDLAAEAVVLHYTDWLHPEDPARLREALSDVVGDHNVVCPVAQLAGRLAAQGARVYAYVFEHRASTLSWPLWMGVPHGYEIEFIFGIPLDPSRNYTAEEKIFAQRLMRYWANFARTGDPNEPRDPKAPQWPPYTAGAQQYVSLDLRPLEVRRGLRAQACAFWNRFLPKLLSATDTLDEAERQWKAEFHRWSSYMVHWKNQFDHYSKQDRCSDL
Sequence of Cholinesterases; ACHE & BCHE (Homo sapiens) (P06276 whole entry, looked up): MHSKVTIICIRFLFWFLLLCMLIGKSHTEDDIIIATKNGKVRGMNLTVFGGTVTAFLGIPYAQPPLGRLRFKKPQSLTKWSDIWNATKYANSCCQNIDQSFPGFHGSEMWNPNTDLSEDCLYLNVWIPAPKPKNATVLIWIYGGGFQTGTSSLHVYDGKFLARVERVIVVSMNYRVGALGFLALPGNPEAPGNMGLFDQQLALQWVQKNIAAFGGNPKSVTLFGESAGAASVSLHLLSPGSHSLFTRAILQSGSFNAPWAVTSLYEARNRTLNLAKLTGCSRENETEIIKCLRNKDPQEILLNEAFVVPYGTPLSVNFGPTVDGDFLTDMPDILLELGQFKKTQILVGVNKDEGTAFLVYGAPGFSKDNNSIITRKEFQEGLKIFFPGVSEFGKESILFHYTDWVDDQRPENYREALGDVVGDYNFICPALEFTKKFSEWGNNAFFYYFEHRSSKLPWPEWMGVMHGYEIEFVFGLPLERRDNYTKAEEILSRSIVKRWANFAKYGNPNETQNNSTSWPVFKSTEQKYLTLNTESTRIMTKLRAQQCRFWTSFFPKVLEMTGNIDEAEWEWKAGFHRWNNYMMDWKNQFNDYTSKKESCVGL
Sequence of Cholinesterases; ACHE & BCHE (Homo sapiens) (P22303 whole entry, looked up): as the sequence (P22303 whole entry) above
Sequence of Cholinesterase (Homo sapiens, UniProt P06276) (P06276 whole entry): as the sequence (P06276 whole entry, looked up) above

On to `CC1(C)CC[C@]2(C(=O)OCCOCCNc3ccnc4ccc(Cl)cc34)CC[C@]3(C)C(=CC[C@@H]4[C@@]5(C)CC[C@H](O)C(C)(C)[C@@H]5CC[C@]43C)[C@@H]2C1`, for which the MIC amounted to 1250 µg/mL (≈ 1770 µM) against Enterococcus faecalis; 2500 µg/mL (≈ 3540 µM) against Proteus vulgaris; 2500 µg/mL (≈ 3540 µM) in data set [1]; 1250 µg/mL (≈ 1770 µM) against Pseudomonas mevalonii; 1250 µg/mL (≈ 1770 µM) in data set [2]; 2500 µg/mL (≈ 3540 µM) against Bacillus subtilis [3]. In addition, the MIC against Escherichia coli [4] was 1250 µg/mL (≈ 1770 µM); in the data set with Klebsiella oxytoca it was 2500 µg/mL (≈ 3540 µM); against Pseudomonas aeruginosa [5], 2500 µg/mL (≈ 3540 µM); with Staphylococcus aureus [6] it was 2500 µg/mL (≈ 3540 µM).

Broadly, the IC50 is the point on the concentration scale where inhibition reaches its midpoint. As to `S=C(NCCCCNc1c2c(nc3ccccc13)CCCC2)NCCc1c[nH]c2ccccc12`, the IC50 worked out at 76 nM against Cholinesterase [7] and 25 nM on Acetylcholinesterase [8].

In data set [9], `COc1ccc(/C=C/C(=N/NC(N)=O)c2ccc(Nc3ccnc4cc(Cl)ccc34)cc2)cc1OC` registered an MIC of 1.56 µM (≈ 0.783 µg/mL).

As usually defined, the GI50 is the concentration at which growth is held to half of that of the control. Take `C=C(CC(=O)OC)C(=O)NCCCCNc1ccnc2cc(Cl)ccc12`: the concentration for 50% growth inhibition (GI50) in the data set with HCT-116 came out at 2000 nM; with HL-60 [10], 1900 nM; with CAPAN-1, 1300 nM; in the data set on K562 it was 8100 nM; in the data set on Z-138, 1900 nM; with MCF7 [11], 800 nM. Besides, the GI50 with NCI-H460 [12] is 2000 nM; in data set [13] it was 3100 nM; with LN-229, 1100 nM.

Take `CC(CCNCCC12CC3CC(CC(C3)C1)C2)Nc1ccnc2cc(Cl)ccc12` (configuration not stated): in data set [14], the Ratio IC50 was 10.

The inhibition is the percentage by which the read-out fell short of the control. As for `Cc1cc(C(=O)NNc2ccnc3cc(Cl)ccc23)c2ccccc2n1`, the inhibition at 250 µg/mL in [15] came to 98%. The MIC in [16] worked out at 42 µM (≈ 15.2 µg/mL).

In the case of `O=C(/C=C/c1ccc(Cl)cc1)c1ccc(S(=O)(=O)NCCCNc2ccnc3cc(Cl)ccc23)cc1`, the IC50 with Plasmodium falciparum was found to be 100 nM.

Take `O=C(NNc1ccnc2cc(Cl)ccc12)c1cc(-c2ccccc2)nc2ccccc12`: the inhibition at 250 µg/mL in [15] was 99%. The MIC in [16] turned out to be 38 µM (≈ 16.1 µg/mL).

Consider `CCCCCCOc1ccc(/C=N/Nc2cc(C)nc3ccc(Cl)cc23)cc1`, for which the MIC worked out at 12.5 µg/mL (≈ 31.6 µM) in the data set on Staphylococcus aureus [17], 6.5 µg/mL (≈ 16.4 µM) with Escherichia coli [18], 12.5 µg/mL (≈ 31.6 µM) against Bacillus subtilis [19] and 12.5 µg/mL (≈ 31.6 µM) in the data set on Pseudomonas aeruginosa [20].

Regarding `CN(C)CCCNc1c(-c2nc3ccccc3s2)cnc2ccccc12`, the IC50 with L02 turned out to be 10900 nM; in the data set with NCI-H460 [21] it was 3220 nM; in the data set on T-24 it was 3170 nM; in the data set on HepG2 [22], 4880 nM; in the data set on MGC-803 [24], 2200 nM. The Activity with MGC-803 [23] was determined as 42.4%.

In [9], `NC(=O)N/N=C(/C=C/c1ccc(Br)cc1)c1ccc(Nc2ccnc3cc(Cl)ccc23)cc1` gave an MIC of 1.56 µM (≈ 0.812 µg/mL).

As for `CCCCCOc1ccc(/C=N/Nc2cc(C)nc3ccc(Cl)cc23)cc1`, the MIC was found to be 12.5 µg/mL (≈ 32.7 µM) against Aspergillus niger and 25 µg/mL (≈ 65.5 µM) against Candida albicans.

As to `Nc1c2c(nc3c1C(c1ccc(F)cc1)C1=C(O3)C(=O)c3ccccc3C1=O)CCCC2` (configuration not stated), the IC50 is 13800 nM on Cholinesterase [25] and 890 nM at Acetylcholinesterase [26].

For the compound `O=C(N/N=C/c1cc(O)ccc1O)c1ccc(Nc2ccnc3ccccc23)cc1`, the IC50 with SMMC-7721 is more than 50000 nM; in the data set with HepG2 [27] it was 23700 nM; in the data set with Huh-7, 18600 nM.

In the case of `COc1cc(/C=C/C(=O)NCCCNc2cc(C)nc3ccccc23)ccc1OCc1ccccc1`, the values for the IC50 at Cholinesterase [28] and against Acetylcholinesterase [29] were 100 nM and 2470 nM, respectively.

As to `S=C(NNc1ccnc2cc(Cl)ccc12)Nc1nc(Nc2ccc(Cl)cc2)nc(Nc2ccc(Cl)cc2)n1`, the IC50 with HL-60 [30] was found to be 26300 nM; with MCF7 [31], 32300 nM; in the data set on HepG2 [22], 45300 nM; with HeLa, 32400 nM.
